Measurements: PubChem BioAssay (NCI)
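Values below derive from 48-hour exposures of cells grown in 96-well plates, with endpoints linearly interpolated between the two concentrations bracketing the appropriate inhibition level. TGI: concentration producing complete growth inhibition.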

Columns and labels:
Experiment in all cases: NCI tumour cell line growth inhibition, 48 h
SF-295 CNS = system: SF-295 CNS
HCT-15 colon = system: HCT-15 colon
HL-60(TB) leukemia = system: HL-60(TB) leukemia
K-562 leukemia = system: K-562 leukemia
BT-549 breast = system: BT-549 breast
HOP-92 NSCLC = system: HOP-92 NSCLC
SR leukemia = system: SR leukemia
NCI/ADR-RES ovarian = system: NCI/ADR-RES ovarian
IGROV1 ovarian = system: IGROV1 ovarian
A549 NSCLC = system: A549 NSCLC
SN12C renal = system: SN12C renal
NCI-H522 lung = system: NCI-H522 lung
HOP-62 NSCLC = system: HOP-62 NSCLC
SNB-75 CNS = system: SNB-75 CNS
NCI-H23 lung = system: NCI-H23 lung
HCC-2998 colon = system: HCC-2998 colon
SNB-19 CNS = system: SNB-19 CNS
786-0 renal = system: 786-0 renal
M14 melanoma = system: M14 melanoma
SF-539 CNS = system: SF-539 CNS
SF-268 CNS = system: SF-268 CNS
T-47D breast = system: T-47D breast
SK-MEL-28 melanoma = system: SK-MEL-28 melanoma
OVCAR-5 ovarian = system: OVCAR-5 ovarian
MCF7 breast = system: MCF7 breast
UACC-62 melanoma = system: UACC-62 melanoma
HT29 colon = system: HT29 colon
UO-31 renal = system: UO-31 renal
LOX IMVI melanoma = system: LOX IMVI melanoma
PC-3 prostate = system: PC-3 prostate
OVCAR-3 ovarian = system: OVCAR-3 ovarian
NCI-H460 lung = system: NCI-H460 lung
KM12 colon = system: KM12 colon
CCRF-CEM leukemia = system: CCRF-CEM leukemia
DU-145 prostate = system: DU-145 prostate
COLO 205 colon = system: COLO 205 colon
MDA-MB-435 = system: MDA-MB-435
SW-620 colon = system: SW-620 colon
SK-OV-3 ovarian = system: SK-OV-3 ovarian
UACC-257 melanoma = system: UACC-257 melanoma
SK-MEL-5 melanoma = system: SK-MEL-5 melanoma
HCT-116 colon = system: HCT-116 colon
OVCAR-4 ovarian = system: OVCAR-4 ovarian
U251 CNS = system: U251 CNS
MOLT-4 leukemia = system: MOLT-4 leukemia
MDA-N = system: MDA-N
OVCAR-8 ovarian = system: OVCAR-8 ovarian
MDA-MB-231 breast = system: MDA-MB-231 breast
RXF 393 renal = system: RXF 393 renal
RPMI-8226 leukemia = system: RPMI-8226 leukemia
TK-10 renal = system: TK-10 renal
SK-MEL-2 melanoma = system: SK-MEL-2 melanoma
MALME-3M melanoma = system: MALME-3M melanoma
A498 renal = system: A498 renal
EKVX NSCLC = system: EKVX NSCLC
ACHN renal = system: ACHN renal
HS 578T breast = system: HS 578T breast
NCI-H226 lung = system: NCI-H226 lung
CAKI-1 renal = system: CAKI-1 renal

SMILES: CCSCCCN(CCCSCC)CCCSCC
- TGI (SF-295 CNS): > 100 µM
- TGI (HCT-15 colon): > 100 µM
- TGI (HL-60(TB) leukemia): > 100 µM
- TGI (K-562 leukemia): > 100 µM
- TGI (BT-549 breast): > 100 µM
- TGI (HOP-92 NSCLC): 80.4 µM
- TGI (SR leukemia): > 100 µM
- TGI (NCI/ADR-RES ovarian): > 100 µM
- TGI (IGROV1 ovarian): > 100 µM
- TGI (A549 NSCLC): > 100 µM
- TGI (SN12C renal): > 100 µM
- TGI (NCI-H522 lung): > 100 µM
- TGI (HOP-62 NSCLC): > 100 µM
- TGI (SNB-75 CNS): > 100 µM
- TGI (NCI-H23 lung): > 100 µM
- TGI (HCC-2998 colon): > 100 µM
- TGI (SNB-19 CNS): > 100 µM
- TGI (786-0 renal): > 100 µM
- TGI (M14 melanoma): > 100 µM
- TGI (SF-539 CNS): > 100 µM
- TGI (SF-268 CNS): > 100 µM
- TGI (T-47D breast): > 100 µM
- TGI (SK-MEL-28 melanoma): > 100 µM
- TGI (OVCAR-5 ovarian): > 100 µM
- TGI (MCF7 breast): > 100 µM
- TGI (UACC-62 melanoma): > 100 µM
- TGI (HT29 colon): > 100 µM
- TGI (UO-31 renal): > 100 µM
- TGI (LOX IMVI melanoma): > 100 µM
- TGI (PC-3 prostate): > 100 µM
- TGI (OVCAR-3 ovarian): > 100 µM
- TGI (NCI-H460 lung): > 100 µM
- TGI (KM12 colon): > 100 µM
- TGI (CCRF-CEM leukemia): > 100 µM
- TGI (DU-145 prostate): > 100 µM
- TGI (COLO 205 colon): > 100 µM
- TGI (MDA-MB-435): > 100 µM
- TGI (SW-620 colon): > 100 µM
- TGI (SK-OV-3 ovarian): > 100 µM
- TGI (UACC-257 melanoma): > 100 µM
- TGI (SK-MEL-5 melanoma): > 100 µM
- TGI (HCT-116 colon): > 100 µM
- TGI (OVCAR-4 ovarian): > 100 µM
- TGI (U251 CNS): > 100 µM
- TGI (MOLT-4 leukemia): > 100 µM
- TGI (MDA-N): > 100 µM
- TGI (OVCAR-8 ovarian): > 100 µM
- TGI (MDA-MB-231 breast): > 100 µM

SMILES: CCNC(=O)c1cc(/C=C/c2ccc([N+](=O)[O-])o2)nc2ccccc12
- TGI (SF-295 CNS): > 100 µM
- TGI (HCT-15 colon): > 100 µM
- TGI (HL-60(TB) leukemia): > 100 µM
- TGI (K-562 leukemia): > 100 µM
- TGI (BT-549 breast): > 100 µM
- TGI (HOP-92 NSCLC): > 100 µM
- TGI (RXF 393 renal): > 100 µM
- TGI (SR leukemia): > 100 µM
- TGI (NCI/ADR-RES ovarian): > 100 µM
- TGI (IGROV1 ovarian): > 65.8 µM
- TGI (A549 NSCLC): > 100 µM
- TGI (RPMI-8226 leukemia): > 100 µM
- TGI (SN12C renal): > 100 µM
- TGI (NCI-H522 lung): > 49 µM
- TGI (TK-10 renal): > 91.9 µM
- TGI (SK-MEL-2 melanoma): 16.6 µM
- TGI (HOP-62 NSCLC): > 100 µM
- TGI (SNB-75 CNS): 63.8 µM
- TGI (NCI-H23 lung): > 100 µM
- TGI (HCC-2998 colon): > 100 µM
- TGI (SNB-19 CNS): > 100 µM
- TGI (786-0 renal): > 100 µM
- TGI (M14 melanoma): 14.5 µM
- TGI (SF-539 CNS): > 100 µM
- TGI (SF-268 CNS): > 100 µM
- TGI (T-47D breast): > 100 µM
- TGI (SK-MEL-28 melanoma): 71.4 µM
- TGI (OVCAR-5 ovarian): > 100 µM
- TGI (MCF7 breast): > 100 µM
- TGI (UACC-62 melanoma): > 100 µM
- TGI (HT29 colon): > 100 µM
- TGI (UO-31 renal): > 100 µM
- TGI (LOX IMVI melanoma): > 100 µM
- TGI (PC-3 prostate): > 100 µM
- TGI (OVCAR-3 ovarian): > 100 µM
- TGI (NCI-H460 lung): 17.4 µM
- TGI (KM12 colon): > 100 µM
- TGI (CCRF-CEM leukemia): > 100 µM
- TGI (MALME-3M melanoma): > 52.5 µM
- TGI (DU-145 prostate): > 100 µM
- TGI (A498 renal): 71 µM
- TGI (EKVX NSCLC): > 100 µM
- TGI (COLO 205 colon): > 84.2 µM
- TGI (MDA-MB-435): 12.6 µM
- TGI (SW-620 colon): > 100 µM
- TGI (SK-OV-3 ovarian): > 100 µM
- TGI (UACC-257 melanoma): 28.2 µM
- TGI (SK-MEL-5 melanoma): 4.1 µM
- TGI (HCT-116 colon): > 100 µM
- TGI (ACHN renal): > 100 µM
- TGI (OVCAR-4 ovarian): > 100 µM
- TGI (U251 CNS): > 100 µM
- TGI (MOLT-4 leukemia): > 95.4 µM
- TGI (HS 578T breast): > 100 µM
- TGI (OVCAR-8 ovarian): > 100 µM
- TGI (NCI-H226 lung): > 100 µM
- TGI (CAKI-1 renal): > 100 µM
- TGI (MDA-MB-231 breast): > 100 µM
